The values that follow come from ChEMBL document CHEMBL1201862, “PubChem BioAssay data set” (2004).

Some test systems named below: K562; OVCAR-8; SK-MEL-5; UACC-62; SW-620; HOP-62; HT-29; HCT-116; SF-539; NCI-H460; SK-OV-3; SN12C; HCT-15; SNB-19; OVCAR-5.
Common to all, as to experiment: DTP human tumour cell line panel, 48 h

Structures are written as SMILES.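 In this assay, cells in 96-well plates receive the compound at five concentrations for 48 hours. Endpoints are linearly interpolated between the surrounding concentrations. GI50 is the concentration that inhibits growth by half.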 Calls of active or inactive are those of the source. Rule as the data show it: active = GI50 up to about 1.1 µM and inactive = higher.

As for `CC(C)C1=CC(=O)C(C)(C2=NC(C)(C)CO2)c2ccccc21` (stereo unspecified), the GI50 was 50.4 µM (inactive) in the test with K562; > 100 µM (inactive) in the test on OVCAR-8; > 100 µM (inactive) in the test with SK-MEL-5; > 100 µM (inactive) in the test on UACC-62; > 100 µM (inactive) in the test on SW-620; > 100 µM (inactive) in the test on HOP-62. The GI50 with HT-29 was > 100 µM (inactive); in the test with HCT-116, > 100 µM (inactive); with SF-539, > 100 µM (inactive); in the test with NCI-H460, > 100 µM (inactive); in the test on SK-OV-3, 88.5 µM (inactive); with SN12C, > 100 µM (inactive). Further, the 50% growth inhibitory concentration (GI50) in the test on HCT-15 was over 100 µM; in the test with SNB-19, > 100 µM (inactive).

For the compound `C#C[C@@H](CCCC)OC(=O)N[C@H](C)c1ccccc1`, the GI50 in the test on K562 was 31.9 µM (inactive); with OVCAR-8, 13.7 µM (inactive); in the test with SK-MEL-5, 20.6 µM (inactive); in the test on UACC-62 it was 4.98 µM (inactive); with SW-620 it was 51.9 µM (inactive); in the test on HOP-62, > 100 µM (inactive). Further, the GI50 with HT-29 is 40.3 µM (inactive); in the test on HCT-116, 34.3 µM (inactive); in the test on SF-539, 2.16 µM (inactive); in the test with NCI-H460 it was 56.6 µM (inactive); in the test on SK-OV-3, > 100 µM (inactive); with SN12C, 71.6 µM (inactive). For the same compound, the GI50 in the test with OVCAR-5 is 33 µM (inactive); with SNB-19 it was 93.3 µM (inactive).

Turning to `Brc1ccc(C[P+]2(c3ccccc3)CCCCC2)cc1.[O-][Cl+3]([O-])([O-])[O-]`, the GI50 in the test with K562 is 77.4 µM (inactive); in the test on OVCAR-8, 95.1 µM (inactive); in the test on SK-MEL-5 it was 17.5 µM (inactive); with UACC-62, 41.1 µM (inactive); in the test with SW-620, 79.1 µM (inactive); in the test on HOP-62, > 100 µM (inactive). Moreover, the GI50 in the test with HT-29 is 38.8 µM (inactive); with HCT-116 it was 68.7 µM (inactive); in the test with SF-539, 82.4 µM (inactive); in the test with NCI-H460, > 100 µM (inactive); in the test on SK-OV-3 it was > 100 µM (inactive); in the test with SN12C, > 100 µM (inactive). For the same compound, the GI50 is over 100 µM with HCT-15, > 100 µM (inactive) in the test with OVCAR-5 and 61.4 µM (inactive) in the test with SNB-19.

Regarding `CCOC(=O)/N=c1/nc(N(C)C)ss1`, the GI50 with K562, with OVCAR-8, in the test on SK-MEL-5, with UACC-62, in the test on SW-620 and in the test on HOP-62 was > 100 µM (inactive) in each case. The GI50 in the test with HT-29, in the test with HCT-116, in the test with SF-539, in the test with NCI-H460, in the test on SK-OV-3 and in the test with SN12C was > 100 µM (inactive) each time. Moreover, the GI50 in the test on HCT-15 was over 100 µM; in the test with OVCAR-5, > 100 µM (inactive); in the test with SNB-19, > 100 µM (inactive).

In the case of `CC(=O)NNc1nc(C)c(C(=O)/C=C/c2ccc(/C=C/C(=O)c3sc(NNC(C)=O)nc3C)cc2)s1`, the GI50 with K562, in the test with OVCAR-8, in the test on UACC-62, in the test with SW-620, with HOP-62 and with HT-29 was > 100 µM (inactive) throughout. Besides, the GI50 in the test with HCT-116 was > 100 µM (inactive); in the test with SF-539 it was > 100 µM (inactive); in the test on NCI-H460, > 100 µM (inactive); in the test on SK-OV-3, > 100 µM (inactive); in the test on SN12C, > 100 µM (inactive); in the test with HCT-15, over 100 µM. Further, the GI50 in the test on OVCAR-5 and with SNB-19 was > 100 µM (inactive) throughout.

Take `CCCCCCCCCCCCCC(=O)OCC(C[As](=O)(O)O)OC(=O)CCCCCCCCCCCCC` (stereo unspecified): the GI50 was > 100 µM (inactive) in the test on K562; > 100 µM (inactive) in the test with OVCAR-8; > 100 µM (inactive) in the test on SK-MEL-5; > 100 µM (inactive) with UACC-62; 18.6 µM (inactive) in the test on SW-620; > 100 µM (inactive) with HOP-62. Moreover, the GI50 in the test on HT-29 was > 100 µM (inactive); with HCT-116, > 100 µM (inactive); in the test on SF-539 it was > 100 µM (inactive); in the test with NCI-H460 it was > 100 µM (inactive); in the test on SK-OV-3, > 100 µM (inactive); with SN12C, 92 µM (inactive). Besides, the GI50 was 69.3 µM with HCT-15 and > 100 µM (inactive) in the test with SNB-19.

As for `Cc1ccc(NC(=O)CCCC(=O)CC(=O)c2ccc(Br)cc2)cc1`, the GI50 with K562, in the test on OVCAR-8, in the test with SK-MEL-5, in the test on UACC-62, in the test with SW-620 and in the test with HOP-62 was > 100 µM (inactive) throughout. Besides, the GI50 in the test on HT-29, with HCT-116, in the test on SF-539, in the test on NCI-H460, in the test with SK-OV-3 and in the test with SN12C was > 100 µM (inactive) throughout. Besides, the values for the GI50 in the test with HCT-15, in the test with OVCAR-5 and in the test with SNB-19 were over 100 µM, > 100 µM (inactive) and > 100 µM (inactive), respectively.

Turning to `O=C1/C(=C/c2ccc(Cl)cc2)COc2ccc(Br)cc21`, the GI50 with K562, with OVCAR-8, with SK-MEL-5, in the test with SW-620, in the test with HOP-62 and with HT-29 was > 100 µM (inactive) each time. For the same compound, the GI50 with HCT-116, in the test with SF-539, with NCI-H460, in the test on SK-OV-3 and in the test on OVCAR-5 was > 100 µM (inactive) throughout.

As for `O=C1C=C(Nc2ccc(Cl)cc2Cl)c2ccccc2C1=O`, the GI50 in the test on K562 is 31.3 µM (inactive); with OVCAR-8, 80 µM (inactive); in the test on UACC-62, 16.5 µM (inactive); with SW-620, 39.5 µM (inactive); in the test with HOP-62, 30.5 µM (inactive); in the test with HT-29, > 100 µM (inactive). Besides, the GI50 with HCT-116 is 35 µM (inactive); with SF-539, > 100 µM (inactive); in the test with NCI-H460, 26.1 µM (inactive); in the test on SK-OV-3 it was 99.1 µM (inactive); with SN12C, 57.1 µM (inactive); with HCT-15, 29.5 µM. The GI50 is > 100 µM (inactive) with OVCAR-5 and 39.3 µM (inactive) with SNB-19.

In the case of `N#CCCN(c1ccc(/C=N/c2ccc(C(=O)O)cc2)cc1)S(=O)(=O)c1ccccc1`, the GI50 in the test on K562, in the test with OVCAR-8, in the test on SK-MEL-5, in the test with UACC-62, in the test with SW-620 and in the test on HOP-62 was > 100 µM (inactive) in each case. The GI50 in the test with HT-29, in the test on HCT-116, with SF-539, in the test with NCI-H460, in the test on SK-OV-3 and with SN12C was > 100 µM (inactive) each time. The GI50 with HCT-15 was over 100 µM; in the test on OVCAR-5, > 100 µM (inactive); in the test with SNB-19 it was > 100 µM (inactive).

For `Cc1nnc2c3nnc(C)n3c3ccccc3n12`, the GI50 in the test on K562, in the test with OVCAR-8, in the test with SK-MEL-5, in the test with UACC-62, in the test with SW-620 and with HOP-62 was > 100 µM (inactive) each time. The GI50 in the test on HT-29, in the test with HCT-116, with SF-539, with NCI-H460, in the test with SK-OV-3 and in the test on SN12C was > 100 µM (inactive) in each case. In addition, the 50% growth inhibitory concentration (GI50) in the test on HCT-15 is over 100 µM; in the test on OVCAR-5 it was > 100 µM (inactive); in the test with SNB-19, > 100 µM (inactive).

`COc1ccc(N2C(=O)C3c4[nH]c5ccccc5c4C4CC(C)(C)CC(C)(C)C4C3C2=O)cc1` (stereo unspecified): the GI50 with K562 was 44.5 µM (inactive); in the test on OVCAR-8, 3.2 µM (inactive); in the test on SK-MEL-5 it was 19.4 µM (inactive); with UACC-62, 14.4 µM (inactive); with SW-620 it was 20 µM (inactive); in the test with HOP-62, 16.7 µM (inactive). The GI50 was 26 µM (inactive) in the test with HT-29; 13.5 µM (inactive) in the test on HCT-116; 12.6 µM (inactive) in the test with SF-539; 17.3 µM (inactive) in the test with SK-OV-3; 16 µM (inactive) in the test with SN12C; 30.2 µM in the test with HCT-15. For the same compound, in the test on SNB-19, the GI50 was 23.7 µM (inactive).

Turning to `Clc1ccc(OCc2nnc3n2N=C(c2ccccc2)CS3)c(Cl)c1`, the GI50 is 4.25 µM (inactive) in the test with K562; 7.33 µM (inactive) in the test with OVCAR-8; 8.28 µM (inactive) in the test on SK-MEL-5; 6.58 µM (inactive) with UACC-62; > 100 µM (inactive) in the test with SW-620; > 10 µM (inactive) with HOP-62. Also, the GI50 was 5.74 µM (inactive) in the test with HT-29; 2.67 µM (inactive) in the test on HCT-116; 12.6 µM (inactive) in the test on SF-539; 5 µM (inactive) in the test on NCI-H460; > 100 µM (inactive) in the test with SK-OV-3; over 100 µM with HCT-15. Also, the GI50 in the test on OVCAR-5 is 5.78 µM (inactive); in the test with SNB-19, 3.78 µM (inactive).

Turning to `COC(=O)C1CCc2nnc(-c3cccnc3)n21` (stereo unspecified), the GI50 with K562, in the test with OVCAR-8, in the test on SK-MEL-5, in the test with UACC-62, in the test with SW-620 and with HOP-62 was > 100 µM (inactive) throughout. The GI50 in the test with HCT-116 was > 100 µM (inactive); in the test with SF-539 it was > 100 µM (inactive); in the test with NCI-H460 it was > 100 µM (inactive); in the test with SK-OV-3, > 100 µM (inactive); with SN12C, > 100 µM (inactive); in the test on HCT-15, over 100 µM. Moreover, the GI50 with SNB-19 was > 100 µM (inactive).
